Laboratory results published in US20250064789A1, “KETOAMIDE DERIVATIVES AND PHARMACEUTICAL USES THEREOF” (priority 2022, published 2025).
Like-named read-outs stand apart in the source and are kept apart here.

Legend:
human caspase 2 = human caspase 2 (Homo sapiens (Human), UniProt P42575); assay: Human protease biochemical activity assay: Caspase-2 inhibitor screening kit
Protocol: (§1) The biochemical activity of compounds against human proteases was determined using Cathepsin K inhibitor screening kit (K150-100), Cathepsin B inhibitor screening kit (K147-100), Thrombin activity testing kit (K373-100), Caspase-2 inhibitor screening kit (K152-100), and Cathepsin D inhibitor screening kit (K148-100) according to the instructions of the kits (Biovision, USA). All experiments were carried out in triplicate. All experimental data were analyzed using GraphPad Prism software.

human thrombin = human thrombin (Homo sapiens (Human), UniProt P00734); assay: Human protease biochemical activity assay: Thrombin activity testing kit
Protocol: as §1

in vivo [1] = assay type: in vivo, cynomolgus monkeys; details: for MRT inf: read-out: MRTINF—obs
[2] = test system: SARS-CoV-2 Omicron (B.1.1.529) BA.2; parameters: species or system K18-hACE2 transgenic mice; details: mouse, in vivo
[3] = Metabolic stability using human liver microsomes; assay type: in vitro ADME; details: pH 7.4, NADPH, 37° C., read-out: Human liver microsomes T1/2
in vivo [4] = details: male, Sprague-Dawley, rat
SARS-CoV-1 = assay type: cell-based
in vivo [5] = assay type: in vivo, beagle dogs; details: for MRT inf: read-out: MRTINF—obs
Protocol: Male ICR mice (6-8 weeks old, weighing 16-25 g), male beagle dogs (1-2 years old, weighing 9-12 kg), or male cynomolgus monkeys (6-7 years old, weighing 6-8 kg) were randomly divided into groups, with three animals for each group, and a series of test compounds were administered orally (p.o.) or intravenously (i.v.) according to the protocol in following Table 10.
The solution for gavage and intravenous administration was prepared with DMSO/HS15/PEG400/NaCl (5/3/40/52, […]). The administration time was recorded, and for each sample, approximately 0.20 mL of blood was collected by jugular vein blood collection or other appropriate methods at the pre-determined time points. The blood sample was anticoagulated with heparin sodium, and after collection, the blood was placed on ice. The sample was centrifuged to separate the plasma within 1 h (centrifugation conditions: 6800 g, 6 min, 2-8° C.). Plasma samples were stored in a −80° C. freezer before analysis. The grouping and blood collection time points are shown in Table 4, with 3 animals at each time point.

human cathepsin K = human cathepsin K (Homo sapiens (Human), UniProt P43235); assay: Human protease biochemical activity assay: Cathepsin K inhibitor screening kit
human cathepsin K, sequence (P43235 115-329): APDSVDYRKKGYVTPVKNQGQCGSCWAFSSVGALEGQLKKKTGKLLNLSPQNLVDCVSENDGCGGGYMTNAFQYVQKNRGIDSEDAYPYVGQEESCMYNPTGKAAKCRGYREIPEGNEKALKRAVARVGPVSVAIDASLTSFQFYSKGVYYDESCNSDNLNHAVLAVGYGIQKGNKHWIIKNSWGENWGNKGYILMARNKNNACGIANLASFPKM
Protocol: as §1

[6] = test system: SARS-CoV-2 Omicron (B.1.1.529) BA.2; assay: Antiviral activity by plaque method in Vero E6-TMPRSS2 cells: SARS-CoV-2 Omicron BA.2; assay type: cell-based
[7] = Preliminary evaluation of in vivo safety (acute and general toxicity test); details: p.o.; 1000 mg/kg single-dose; 800, 600, 400 mg/kg twice a day for 14 consecutive days
human cathepsin D = human cathepsin D (Homo sapiens (Human), UniProt P07339); assay: Human protease biochemical activity assay: Cathepsin D inhibitor screening kit
human cathepsin D, sequence (P07339 65-412): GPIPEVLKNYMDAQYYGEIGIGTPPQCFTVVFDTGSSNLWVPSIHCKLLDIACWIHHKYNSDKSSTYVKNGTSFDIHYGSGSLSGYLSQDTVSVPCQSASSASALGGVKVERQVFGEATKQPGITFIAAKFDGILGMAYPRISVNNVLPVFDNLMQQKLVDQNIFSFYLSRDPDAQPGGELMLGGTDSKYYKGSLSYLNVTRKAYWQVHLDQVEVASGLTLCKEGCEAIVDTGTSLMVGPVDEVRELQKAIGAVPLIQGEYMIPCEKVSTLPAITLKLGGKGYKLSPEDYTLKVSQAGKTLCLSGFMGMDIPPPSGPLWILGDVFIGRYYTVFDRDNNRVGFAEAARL
Protocol: as §1

human cathepsin B = human cathepsin B (Homo sapiens (Human), UniProt P07858); assay: Human protease biochemical activity assay: Cathepsin B inhibitor screening kit
Protocol: as §1

in vivo [8] = assay type: in vivo, ICR mice; details: for MRT inf: read-out: MRTINF—obs
[9] = molecular target: hERG potassium ion channels (Homo sapiens (Human), UniProt Q12809); assay: hERG potassium current, whole cell patch clamp in HEK-293-hERG cells; details: 30 μM
hERG potassium ion channels, sequence (Q12809 whole entry, looked up): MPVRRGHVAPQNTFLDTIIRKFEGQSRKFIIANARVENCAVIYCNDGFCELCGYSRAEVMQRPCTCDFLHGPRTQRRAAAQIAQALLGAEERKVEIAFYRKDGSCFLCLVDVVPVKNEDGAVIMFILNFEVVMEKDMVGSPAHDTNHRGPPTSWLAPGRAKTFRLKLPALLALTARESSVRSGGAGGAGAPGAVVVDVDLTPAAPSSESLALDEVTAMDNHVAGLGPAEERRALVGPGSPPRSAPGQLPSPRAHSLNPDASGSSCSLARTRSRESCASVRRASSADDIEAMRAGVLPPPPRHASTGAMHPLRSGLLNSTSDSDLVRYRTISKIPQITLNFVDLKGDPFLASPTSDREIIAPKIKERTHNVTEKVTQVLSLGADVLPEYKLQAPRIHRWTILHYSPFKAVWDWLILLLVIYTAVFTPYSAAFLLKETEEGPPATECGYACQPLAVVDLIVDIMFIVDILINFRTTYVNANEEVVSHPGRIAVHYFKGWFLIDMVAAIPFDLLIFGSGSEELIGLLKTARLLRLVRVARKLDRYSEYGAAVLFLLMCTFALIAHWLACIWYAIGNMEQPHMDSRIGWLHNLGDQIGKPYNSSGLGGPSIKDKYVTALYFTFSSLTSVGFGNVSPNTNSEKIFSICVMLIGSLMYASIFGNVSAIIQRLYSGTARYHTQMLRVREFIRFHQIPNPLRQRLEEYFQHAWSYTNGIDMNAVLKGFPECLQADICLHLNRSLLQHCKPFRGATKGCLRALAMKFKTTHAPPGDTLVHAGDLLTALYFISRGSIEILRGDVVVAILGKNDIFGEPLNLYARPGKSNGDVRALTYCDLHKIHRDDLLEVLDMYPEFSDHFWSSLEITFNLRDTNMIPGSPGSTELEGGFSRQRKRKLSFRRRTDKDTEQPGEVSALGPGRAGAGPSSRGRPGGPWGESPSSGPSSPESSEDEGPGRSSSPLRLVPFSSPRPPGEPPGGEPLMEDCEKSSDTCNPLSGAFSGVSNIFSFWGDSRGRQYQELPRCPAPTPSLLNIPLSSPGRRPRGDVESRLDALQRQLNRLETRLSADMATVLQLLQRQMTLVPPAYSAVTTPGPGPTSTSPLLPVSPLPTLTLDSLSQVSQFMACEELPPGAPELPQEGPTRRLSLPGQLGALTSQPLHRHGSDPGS

MERS-CoV = assay type: cell-based
[10] = test system: SARS-CoV-2 Omicron (B.1.1.529) BA.5; assay: Antiviral activity by plaque method in Vero E6-TMPRSS2 cells: SARS-CoV-2 Omicron BA.5; assay type: cell-based
[11] = male, cynomolgus monkey, in vivo, iv, cynomolgus monkeys, i.v. 1 mg/kg
[12] = male, dog, in vivo, po, beagle dogs, p.o. 10 mg/kg
[13] = male, mouse, in vivo, iv, ICR mice, i.v. 1 mg/kg

human caspase 2, sequence (P42575 170-325): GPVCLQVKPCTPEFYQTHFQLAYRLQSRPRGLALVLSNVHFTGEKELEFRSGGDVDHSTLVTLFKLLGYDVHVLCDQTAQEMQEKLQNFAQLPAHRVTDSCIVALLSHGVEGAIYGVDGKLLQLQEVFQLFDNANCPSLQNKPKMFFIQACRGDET
human caspase 2, sequence (P42575 348-452): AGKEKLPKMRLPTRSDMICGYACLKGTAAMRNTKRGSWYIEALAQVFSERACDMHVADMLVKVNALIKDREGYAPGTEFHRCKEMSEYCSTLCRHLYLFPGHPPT

For `COC[C@@H](NC(=O)C1CCCC(F)(F)C1)C(=O)N[C@H](Cc1ccccc1)C(=O)C(=O)NCc1nccs1` (stereo partly drawn) [Compound 398, N—((R)-1-(((R)-3,4-dioxo-1-phenyl-4-((thiazole-2-ylmethyl)amino)butan-2-yl)amino)-3-methoxy-1-oxopropan-2-yl)-3,3-difluorocyclohexane-1-formamide], the IC50 (human caspase 2) was > 100 µM, the IC50 (human thrombin) was > 100 µM and the Vssobs (in vivo [1]; cynomolgus monkeys, i.v. 1 mg/kg) was 2.0658 ± 0.37439 L/kg. For the same compound, the “pharmacokinetic properties in cynomolgus monkeys (in words)” value (in vivo [1]; i.v. 1 mg/kg, p.o. 10 mg/kg) was “good pharmacokinetic properties”, the Tmax (in vivo [1]; [11]) was 4.8 min and the clearance (in vivo [1]; [11]) was 2000 ± 257 mL/min/kg. The MRT inf (in vivo [1]; [11]) was 54 ± 10.8 min, the MRT inf (in vivo [1]; male, cynomolgus monkey, in vivo, po, cynomolgus monkeys, p.o. 10 mg/kg) was 283 ± 53.4 min and the “infectious viral load in the lungs by plaque assay (in words)” value [2] was “effectively inhibited the production of infectious viral particles in the lungs”. The “inhibition of viral subgenome mRNA (sgRNA) in the lungs” value [2] was 337 times, the “lung histopathology, H&E staining (in words)” value [2] was “scattered inflammatory cell infiltration was occasionally observed” and the “reduction of sgRNA copies in the lungs” value [2] was 12 times. The “reduction of sgRNA copy in the lungs compared with mice treated with Nirmatrelvir” value [2] was “four times”, the “reduction of vRNA copies in the lungs” value [2] was 16 times and the “reduction of vRNA copy in the lungs compared with mice treated with Nirmatrelvir” value [2] was “four times”. The “reduction of viral genomic RNA (vRNA) in the lungs” value [2] was 179 times, the half-life at 1 µM [3] was 35.3 min and the MRT inf (in vivo [4]; iv, 1 mg/kg) was 140 ± 13.2 min. The Tmax (in vivo [4]; iv, 1 mg/kg) was 4.8 min, the MRT inf (in vivo [4]; po, 10 mg/kg) was 396 ± 53.4 min and the Tmax (in vivo [4]; po, 10 mg/kg) was 240 ± 120 min. For the same compound, the “anti-viral activity, times higher than Nirmatrelvir (PF-07321332)” value (from here on “anti-viral activity”) (SARS-CoV-1) was 17.14 times, the Vssobs (in vivo [5]; beagle dogs, i.v. 1 mg/kg) was 1.41964 ± 0.16026 L/kg and the “pharmacokinetic properties in beagle dogs (in words)” value (in vivo [5]; i.v. 1 mg/kg, p.o. 10 mg/kg) was “good pharmacokinetic properties”. For the same compound, the MRT inf (in vivo [5]; male, dog, in vivo, iv, beagle dogs, i.v. 1 mg/kg) was 28.2 ± 3 min, the Tmax (in vivo [5]; [12]) was 60 min and the MRT inf (in vivo [5]; [12]) was 128 ± 10.8 min. For the same compound, the IC50 (human cathepsin K) was > 100 µM, the “anti-viral activity” value [6] was 2.82 times and the “body weight and general condition during the administration period” value [7] was 1. During the administration period, no abnormal body. For the same compound, the IC50 (human cathepsin D) was > 100 µM, the IC50 (human cathepsin B) was > 100 µM and the “pharmacokinetic properties in mice (in words)” value (in vivo [8]; i.v. 1 mg/kg, p.o. 150 mg/kg) was “good pharmacokinetic properties”. For the same compound, the Tmax (in vivo [8]; [13]) was 4.8 min, the MRT inf (in vivo [8]; [13]) was 10.2 ± 1.8 min and the MRT inf (in vivo [8]; male, mouse, in vivo, po, ICR mice, p.o. 150 mg/kg) was 217 ± 70.8 min. For the same compound, the “The average inhibition rate on hERG current” value [9] was 1.28%, the “anti-viral activity” value (MERS-CoV) was 1.79 times and the “anti-viral activity” value [10] was 4.00 times.
